Source: patent US20100035251A1, “BioMarkers for the Progression of Alzheimer's Disease” (priority 2006, published 2010)

Biological target: LRRK2 protein (SEQ ID NO:2) (Homo sapiens, UniProt Q5S007)
Test: Drug Pull-Down experiments
Format: binding
Description: The pharmacological properties of the LRRK2 modulating agents can be evaluated, for example, in Drug Pull-Down experiments. The above-mentioned heterocyclic compounds can show activity in Drug Pull-Down experiments at concentrations below 20 μM.

Chain of LRRK2 protein (SEQ ID NO:2) (Q5S007 whole entry R50H/L212S): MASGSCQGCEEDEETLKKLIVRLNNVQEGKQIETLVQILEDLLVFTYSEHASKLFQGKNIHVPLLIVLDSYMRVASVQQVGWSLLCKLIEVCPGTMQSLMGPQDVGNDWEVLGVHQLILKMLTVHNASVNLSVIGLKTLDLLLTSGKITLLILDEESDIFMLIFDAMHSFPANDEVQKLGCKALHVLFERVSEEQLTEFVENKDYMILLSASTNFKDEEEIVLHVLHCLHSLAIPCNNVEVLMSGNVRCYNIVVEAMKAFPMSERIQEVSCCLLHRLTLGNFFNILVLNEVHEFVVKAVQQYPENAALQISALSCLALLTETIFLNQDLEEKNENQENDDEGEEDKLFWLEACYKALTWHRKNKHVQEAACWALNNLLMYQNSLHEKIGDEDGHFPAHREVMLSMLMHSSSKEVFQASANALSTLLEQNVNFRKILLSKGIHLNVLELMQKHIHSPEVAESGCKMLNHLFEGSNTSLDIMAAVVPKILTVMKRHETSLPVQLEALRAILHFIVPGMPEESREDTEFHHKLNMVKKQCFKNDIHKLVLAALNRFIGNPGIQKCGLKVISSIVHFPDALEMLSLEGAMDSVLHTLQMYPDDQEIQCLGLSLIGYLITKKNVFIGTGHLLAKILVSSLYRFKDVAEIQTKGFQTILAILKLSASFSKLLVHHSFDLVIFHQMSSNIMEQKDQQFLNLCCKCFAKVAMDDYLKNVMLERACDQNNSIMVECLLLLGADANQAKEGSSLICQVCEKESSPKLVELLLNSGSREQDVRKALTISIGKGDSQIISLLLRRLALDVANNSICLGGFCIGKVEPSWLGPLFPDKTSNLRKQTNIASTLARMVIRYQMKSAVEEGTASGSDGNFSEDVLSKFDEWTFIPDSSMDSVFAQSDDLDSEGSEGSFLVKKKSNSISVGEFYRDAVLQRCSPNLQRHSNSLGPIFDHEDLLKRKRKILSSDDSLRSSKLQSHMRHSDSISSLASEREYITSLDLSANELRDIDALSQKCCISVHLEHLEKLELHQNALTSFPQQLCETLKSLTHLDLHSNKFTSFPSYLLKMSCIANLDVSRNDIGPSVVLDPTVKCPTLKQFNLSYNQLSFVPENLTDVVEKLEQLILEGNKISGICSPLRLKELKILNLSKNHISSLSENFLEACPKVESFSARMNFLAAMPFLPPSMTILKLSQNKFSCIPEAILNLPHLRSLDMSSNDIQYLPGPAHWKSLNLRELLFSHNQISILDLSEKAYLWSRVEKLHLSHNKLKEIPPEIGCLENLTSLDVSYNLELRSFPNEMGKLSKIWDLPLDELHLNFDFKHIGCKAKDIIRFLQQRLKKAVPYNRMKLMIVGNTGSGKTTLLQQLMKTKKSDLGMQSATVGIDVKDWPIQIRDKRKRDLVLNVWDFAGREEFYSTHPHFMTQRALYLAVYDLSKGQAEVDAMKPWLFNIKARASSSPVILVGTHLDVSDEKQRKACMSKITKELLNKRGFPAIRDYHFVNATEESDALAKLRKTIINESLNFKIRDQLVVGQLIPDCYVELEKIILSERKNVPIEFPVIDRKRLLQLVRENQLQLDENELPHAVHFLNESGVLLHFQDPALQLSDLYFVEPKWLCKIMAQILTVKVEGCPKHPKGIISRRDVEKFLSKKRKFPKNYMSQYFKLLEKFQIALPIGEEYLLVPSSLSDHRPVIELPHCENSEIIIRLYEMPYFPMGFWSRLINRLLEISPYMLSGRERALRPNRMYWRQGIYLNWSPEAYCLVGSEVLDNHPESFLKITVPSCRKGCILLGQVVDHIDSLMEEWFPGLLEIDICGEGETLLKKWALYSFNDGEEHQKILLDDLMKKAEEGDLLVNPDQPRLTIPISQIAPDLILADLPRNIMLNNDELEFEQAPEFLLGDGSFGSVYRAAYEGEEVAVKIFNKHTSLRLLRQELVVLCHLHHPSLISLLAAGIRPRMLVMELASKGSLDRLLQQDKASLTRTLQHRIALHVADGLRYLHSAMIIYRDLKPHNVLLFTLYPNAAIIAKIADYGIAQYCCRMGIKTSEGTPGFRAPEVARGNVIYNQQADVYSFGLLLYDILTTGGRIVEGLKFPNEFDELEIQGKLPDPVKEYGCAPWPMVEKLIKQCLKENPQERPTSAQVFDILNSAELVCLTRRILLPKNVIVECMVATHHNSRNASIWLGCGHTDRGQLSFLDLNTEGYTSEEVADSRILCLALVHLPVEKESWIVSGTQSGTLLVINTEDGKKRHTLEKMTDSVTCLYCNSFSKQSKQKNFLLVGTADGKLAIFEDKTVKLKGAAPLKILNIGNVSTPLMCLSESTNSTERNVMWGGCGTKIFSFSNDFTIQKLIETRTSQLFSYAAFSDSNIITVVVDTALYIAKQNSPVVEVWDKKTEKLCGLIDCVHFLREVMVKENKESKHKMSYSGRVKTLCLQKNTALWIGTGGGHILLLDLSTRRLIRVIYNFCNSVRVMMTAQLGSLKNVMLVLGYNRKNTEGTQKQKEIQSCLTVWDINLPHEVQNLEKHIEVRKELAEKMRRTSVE

- IC50: ~1000 nM
Compound: Cc1[nH]c(/C=C2\C(=O)Nc3ccccc32)c(C)c1CCC(=O)O [Compound 12]
